Experimental data reported in US20250250230A1, “HETEROCYCLIC COMPOUND” (TAKEDA PHARMACEUTICAL COMPANY LIMITED, priority 2022, published 2025).

Molecular target: T1, human orexin type 2 receptor (Homo sapiens, UniProt O43614)
T1 construct: expressed in transfected cells
T1 sequence (O43614 1-444): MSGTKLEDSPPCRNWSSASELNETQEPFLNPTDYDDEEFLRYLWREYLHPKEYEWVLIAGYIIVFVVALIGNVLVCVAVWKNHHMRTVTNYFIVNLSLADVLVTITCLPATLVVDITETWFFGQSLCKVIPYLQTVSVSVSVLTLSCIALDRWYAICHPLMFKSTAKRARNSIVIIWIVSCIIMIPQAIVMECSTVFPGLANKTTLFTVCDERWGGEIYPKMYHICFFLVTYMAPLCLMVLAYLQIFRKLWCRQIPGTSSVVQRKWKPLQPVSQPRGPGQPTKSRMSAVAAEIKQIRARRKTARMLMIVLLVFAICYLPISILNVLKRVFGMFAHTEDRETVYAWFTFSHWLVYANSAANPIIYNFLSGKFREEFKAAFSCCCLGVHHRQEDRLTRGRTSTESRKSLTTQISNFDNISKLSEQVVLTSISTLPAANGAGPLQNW
Experiment: Measurement of orexin type 2 receptor agonist activity (calcium fluorescence, Fluo-4 AM, FDSS)
Assay type: cell-based
Conditions: test compound 3 μM; CHO cells expressing human OX2 receptor; DMSO = 0%, orexin A (human) = 100%
Description: To obtain a cell clone stably expressing human orexin type 2 receptor, human orexin type 2 receptor cDNA was inserted into pcDNA3.1(+) plasmid vector (Invitrogen), and a plasmid DNA for expression of human orexin type 2 receptor (pcDNA3.1(+)/hOX2R) was cloned. The plasmid DNA was introduced into CHO-K1 cell by an electroporation method, and human orexin type 2 receptor expressing clone cells were obtained by limiting dilution method by using G418 drug resistance as a selection marker.
CHO cells forcibly expressing human OX2 receptor were seeded in each well of 384 well black transparent bottom plate (BD Falcon) at 10,000 cells/well, and cultured for one day in a 5% CO2 incubator at 37° C. After removal of the medium in the cell plate, assay buffer A containing a calcium indicator (HBSS (Thermo Fisher Scientific), 20 mM HEPES (Thermo Fisher Scientific), 0.1% BSA (Sigma-Aldrich), 2.5 μg/mL Fluo-4 AM (DOJINDO Chemical), 0.08% Pluronic F127 (DOJINDO Chemical), 1.25 mM probenecid (DOJINDO Chemical)) was added at 30 μL/well. The plate was stood for 30 min in a 5% CO2 incubator at 37° C., and further stood at room temperature for 30 min. A test compound prepared by diluting with assay buffer B (HBSS, 20 mM HEPES, 0.1% BSA) was added at 10 μL/well, and the fluorescence value was measured by FDSSμCELL (Hamamatsu Photonics K.K.) every one sec for 1 min, and thereafter every two sec for […]. The activity (%) of the test compound was calculated assuming that variation in the fluorescence value when DMSO was added instead of the test compound was 0%, and variation in the fluorescence value when orexin A (human) (PEPTIDE INSTITUTE, INC.) was added at the final concentration of 10 nM was 100%.

Going from `CS(=O)(=O)N[C@@H]1CCCCN(C(=O)C2CC2c2ccccc2-c2c(F)cccc2F)C1` (mixture of isomers) [Example 183, a mixture of N-{(3R)-1-[(1R,2R)-2-(2′,6′-difluoro[1,1′-biphenyl]-2-yl)cyclopropane-1-carbonyl]azepan-3-yl}methanesulfonamide and N-{(3R)-1-[(1S,2S)-2-(2′,6′-difluoro[1,1′-biphenyl]-2-yl)cyclopropane-1-carbonyl]azepan-3-yl}methanesulfonamide] to `CS(=O)(=O)N[C@H]1CCCCN(C(=O)C2CC2c2ccccc2-c2c(F)cccc2F)C1` (mixture of isomers) [Example 184, a mixture of N-{(3S)-1-[(1R,2R)-2-(2′,6′-difluoro[1,1′-biphenyl]-2-yl)cyclopropane-1-carbonyl]azepan-3-yl}methanesulfonamide and N-{(3S)-1-[(1S,2S)-2-(2′,6′-difluoro[1,1′-biphenyl]-2-yl)cyclopropane-1-carbonyl]azepan-3-yl}methanesulfonamide], the “OX2R agonist activity (3 μM, %)” value rises from 78% to 108%.

Going from `CS(=O)(=O)N[C@H]1CCN(C(=O)C2CC2c2cccc(F)c2-c2c(F)cccc2F)C1` (mixture of isomers) [Example 192, a mixture of N-{(3S)-1-[(1R,2R)-2-(2′,6,6′-trifluoro[1,1′-biphenyl]-2-yl)cyclopropane-1-carbonyl]pyrrolidin-3-yl}methanesulfonamide and N-{(3S)-1-[(1S,2S)-2-(2′,6,6′-trifluoro[1,1′-biphenyl]-2-yl)cyclopropane-1-carbonyl]pyrrolidin-3-yl}methanesulfonamide] to `CS(=O)(=O)N[C@H]1CCCN(C(=O)C2CC2c2cccc(F)c2-c2c(F)cccc2F)C1` (mixture of isomers) [Example 193, a mixture of N-{(3S)-1-[(1R,2R)-2-(2′,6,6′-trifluoro[1,1′-biphenyl]-2-yl)cyclopropane-1-carbonyl]piperidin-3-yl}methanesulfonamide and N-{(3S)-1-[(1S,2S)-2-(2′,6,6′-trifluoro[1,1′-biphenyl]-2-yl)cyclopropane-1-carbonyl]piperidin-3-yl}methanesulfonamide], the “OX2R agonist activity (3 μM, %)” value rises from 95% to 98%.

Going from `CS(=O)(=O)N[C@H]1CCCN(C(=O)C2CC2c2cccc(F)c2-c2c(F)cccc2F)CC1` (mixture of isomers) [Example 194, a mixture of N-{(4S)-1-[(1R,2R)-2-(2′,6,6′-trifluoro[1,1′-biphenyl]-2-yl)cyclopropane-1-carbonyl]azepan-4-yl}methanesulfonamide and N-{(4S)-1-[(1S,2S)-2-(2′,6,6′-trifluoro[1,1′-biphenyl]-2-yl)cyclopropane-1-carbonyl]azepan-4-yl}methanesulfonamide] to `CS(=O)(=O)NC1CCCN(C(=O)C2CC2c2ccccc2-c2ncccc2F)CC1` (mixture of isomers) [Example 256, a mixture of N-[(4S)-1-{(1R,2R)-2-[2-(3-fluoropyridin-2-yl)phenyl]cyclopropane-1-carbonyl}azepan-4-yl]methanesulfonamide and N-[(4S)-1-{(1S,2S)-2-[2-(3-fluoropyridin-2-yl)phenyl]cyclopropane-1-carbonyl}azepan-4-yl]methanesulfonamide], the “OX2R agonist activity (3 μM, %)” value falls from 100% to 52%.

Going from `CS(=O)(=O)N[C@H]1CCN(C(=O)C2CC2(F)c2ccccc2-c2c(F)cccc2F)C1` (mixture of isomers) [Example 198, a mixture of N-{(3S)-1-[(1R,2R)-2-(2′,6′-difluoro[1,1′-biphenyl]-2-yl)-2-fluorocyclopropane-1-carbonyl]pyrrolidin-3-yl}methanesulfonamide and N-{(3S)-1-[(1S,2S)-2-(2′,6′-difluoro[1,1′-biphenyl]-2-yl)-2-fluorocyclopropane-1-carbonyl]pyrrolidin-3-yl}methanesulfonamide] to `CS(=O)(=O)N[C@H]1CCCN(C(=O)C2CC2(F)c2ccccc2-c2c(F)cccc2F)C1` (mixture of isomers) [Example 199, a mixture of N-{(3S)-1-[(1R,2R)-2-(2′,6′-difluoro[1,1′-biphenyl]-2-yl)-2-fluorocyclopropane-1-carbonyl]piperidin-3-yl}methanesulfonamide and N-{(3S)-1-[(1S,2S)-2-(2′,6′-difluoro[1,1′-biphenyl]-2-yl)-2-fluorocyclopropane-1-carbonyl]piperidin-3-yl}methanesulfonamide], the “OX2R agonist activity (3 μM, %)” value rises from 101% to 104%.

Compared with `O=C(C1CC1c1ccccc1-c1c(F)cccc1F)N1CCC[C@H](NS(=O)(=O)CF)C1` (mixture of isomers) [Example 207, a mixture of N-{(3S)-1-[(1R,2R)-2-(2′,6′-difluoro[1,1′-biphenyl]-2-yl)cyclopropane-1-carbonyl]piperidin-3-yl}-1-fluoromethanesulfonamide and N-{(3S)-1-[(1S,2S)-2-(2′,6′-difluoro[1,1′-biphenyl]-2-yl)cyclopropane-1-carbonyl]piperidin-3-yl}-1-fluoromethanesulfonamide], `O=C(C1CC1c1ccccc1-c1c(F)cccc1F)N1CCC[C@H](NS(=O)(=O)CBr)C1` (mixture of isomers) [Example 213, a mixture of 1-bromo-N-{(3S)-1-[(1R,2R)-2-(2′,6′-difluoro[1,1′-biphenyl]-2-yl)cyclopropane-1-carbonyl]piperidin-3-yl}methanesulfonamide and 1-bromo-N-{(3S)-1-[(1S,2S)-2-(2′,6′-difluoro[1,1′-biphenyl]-2-yl)cyclopropane-1-carbonyl]piperidin-3-yl}methanesulfonamide] is lower in “OX2R agonist activity (3 μM, %)” value: 101% for the first, 100% for the second.

First: COCS(=O)(=O)N[C@H]1CCCN(C(=O)C2CC2c2ccccc2-c2c(F)cccc2F)C1 (mixture of isomers) [Example 214, a mixture of N-{(3S)-1-[(1R,2R)-2-(2′,6′-difluoro[1,1′-biphenyl]-2-yl)cyclopropane-1-carbonyl]piperidin-3-yl}-1-methoxymethanesulfonamide and N-{(3S)-1-[(1S,2S)-2-(2′,6′-difluoro[1,1′-biphenyl]-2-yl)cyclopropane-1-carbonyl]piperidin-3-yl}-1-methoxymethanesulfonamide]
Second: COCS(=O)(=O)NC1CCN(C(=O)C2CC2c2ccccc2-c2c(F)cccc2F)C1 (mixture of isomers) [Example 227, a mixture of N-{(3S)-1-[(1R,2R)-2-(2′,6′-difluoro[1,1′-biphenyl]-2-yl)cyclopropane-1-carbonyl]pyrrolidin-3-yl}-1-methoxymethanesulfonamide and N-{(3S)-1-[(1S,2S)-2-(2′,6′-difluoro[1,1′-biphenyl]-2-yl)cyclopropane-1-carbonyl]pyrrolidin-3-yl}-1-methoxymethanesulfonamide]
The “OX2R agonist activity (3 μM, %)” value of the first is higher: 95% for the first, 85% for the second.

Going from `CCS(=O)(=O)NC1COCCN(C(=O)[C@@H]2C[C@H]2c2ccccc2-c2c(F)cccc2F)C1` (mixture of isomers) [Example 257] to `C[C@]1(NS(C)(=O)=O)CCN(C(=O)[C@@H]2C[C@H]2c2ccccc2-c2c(F)cccc2F)C1` (mixture of isomers) [Example 286, a mixture of N-{(3R)-1-[(1R,2R)-2-(2′,6′-difluoro[1,1′-biphenyl]-2-yl)cyclopropane-1-carbonyl]-3-methylpyrrolidin-3-yl}methanesulfonamide and N-{(3S)-1-[(1R,2R)-2-(2′,6′-difluoro[1,1′-biphenyl]-2-yl)cyclopropane-1-carbonyl]-3-methylpyrrolidin-3-yl}methanesulfonamide], the “OX2R agonist activity (3 μM, %)” value falls from 98% to 96%.

In the case of `CC1[C@@H](NS(C)(=O)=O)CCN1C(=O)[C@@H]1C[C@H]1c1ccccc1-c1c(F)cccc1F` (mixture of isomers) [Example 261, a mixture of N-{(2R,3R)-1-[(1R,2R)-2-(2′,6′-difluoro[1,1′-biphenyl]-2-yl)cyclopropane-1-carbonyl]-2-methylpyrrolidin-3-yl}methanesulfonamide and N-{(2S,3S)-1-[(1R,2R)-2-(2′,6′-difluoro[1,1′-biphenyl]-2-yl)cyclopropane-1-carbonyl]-2-methylpyrrolidin-3-yl}methanesulfonamide], the “OX2R agonist activity (3 μM, %)” value is reported as 88%.
